Test results reported in DBAASP.
≈ marks a conversion by molar mass, not a printed value.

How the values were obtained:
Test in all cases: ≥ marks a high value that may be exact or a test limit, other limits are often not marked, values filed in µg/mL are converted to µM
[1] = tested on: Bacillus subtilis ATCC 6633
[2] = tested on: Staphylococcus aureus ATCC 25923
[3] = tested on: Acinetobacter baumannii
[4] = tested on: Escherichia coli ATCC 25922
[5] = tested on: Klebsiella pneumoniae ATCC 700603
[6] = tested on: Pseudomonas aeruginosa ATCC 9027
[7] = tested on: Staphylococcus aureus ATCC 6538

Row | Structure (SMILES) | MIC [1] [µM] | MIC [2] [µM] | MIC [3] [µM] | MIC [4] [µM] | MIC [5] [µM] | MIC [6] [µM] | MIC [7] [µM]
1 | CC(C)C[C@H](NC(=O)[C@@H]1CSSC[C@H](NC(=O)CNC(=O)[C@H](CCCN=C(N)N)NC(=O)[C@H](Cc2ccccc2)NC(=O)[C@H](C)NC(=O)[C@H](C)N)C(=O)N[C@@H](Cc2c[nH]c3ccccc23)C(=O)N[C@@H]([C@@H](C)O)C(=O)N[C@@H](CCCCN)C(=O)N[C@@H](CC(N)=O)C(=O)N[C@@H](Cc2ccc(O)cc2)C(=O)N[C@@H](CO)C(=O)N2CCC[C@H]2C(=O)N[C@@H](CCCCN)C(=O)N2CCC[C@H]2C(=O)N1)C(=O)O [AAFRGCWTKNYSPKPCL] | 25.8 (≈ 50.1 µg/mL) | 51.5 (≈ 99.9 µg/mL) |  |  |  |  | 
2 | CC(C)C[C@H](NC(=O)[C@H](CCCCN)NC(=O)[C@H](CC(C)C)NC(=O)[C@H](C)NC(=O)[C@H](CC(C)C)NC(=O)[C@H](CCCCN)NC(=O)[C@H](CCCCN)NC(=O)[C@H](CC(C)C)NC(=O)[C@H](CC(C)C)NC(=O)[C@H](CCCCN)NC(=O)[C@H](Cc1c[nH]c2ccccc12)NC(=O)[C@@H](NC(=O)[C@H](CC(C)C)NC(=O)[C@H](CCCCN)NC(=O)[C@@H](N)Cc1ccccc1)C(C)C)C(=O)O [FKLVWKLLKKLALKL] |  | 32 (≈ 58.9 µg/mL) | ≥ 64 | > 64 | 64 (≈ 118 µg/mL) | > 64 | 
3 | CC(C)C[C@H](NC(=O)[C@H](CC(C)C)NC(=O)[C@H](CCCCN)NC(=O)[C@H](CCCCN)NC(=O)[C@H](C)NC(=O)[C@H](CC(C)C)NC(=O)[C@H](CC(C)C)NC(=O)[C@H](CCCCN)NC(=O)[C@H](C)NC(=O)[C@@H](N)Cc1ccccc1)C(N)=O [FAKLLAKKLL] |  |  |  |  |  | 175 (≈ 200 µg/mL) | 87.4 (≈ 99.9 µg/mL)
4 | CC(C)C[C@H](NC(=O)[C@H](CC(C)C)NC(=O)[C@H](CCCCN)NC(=O)[C@H](CCCCN)NC(=O)[C@H](C)NC(=O)[C@H](CC(C)C)NC(=O)[C@H](CCCCN)NC(=O)[C@H](CCCCN)NC(=O)[C@H](C)NC(=O)[C@@H](N)Cc1ccccc1)C(N)=O [FAKKLAKKLL] |  |  |  |  |  | > 172 | > 172
5 | CC(C)C[C@H](NC(=O)[C@H](CCCCN)NC(=O)[C@H](C)NC(=O)[C@H](CC(C)C)NC(=O)[C@H](CC(C)C)NC(=O)[C@H](CCCCN)NC(=O)[C@H](C)NC(=O)[C@@H](N)Cc1ccccc1)C(=O)N[C@@H](C)C(=O)N[C@@H](CCCCN)C(=O)N[C@@H](C)C(=O)N[C@@H](CCCCN)C(=O)NCC(N)=O [FAKLLAKLAKAKG] |  |  |  |  |  | > 147 | > 147
6 | CC[C@H](C)[C@H](NC(=O)[C@H](CCCCN)NC(=O)[C@H](CCCCN)NC(=O)[C@@H](NC(=O)[C@H](CC(C)C)NC(=O)[C@H](CC(C)C)NC(=O)[C@H](CCCCN)NC(=O)CN)C(C)C)C(=O)N[C@H](C(=O)N[C@@H](CO)C(=O)N[C@@H](CC(C)C)C(=O)N[C@H](C(=O)N[C@@H](CCCN=C(N)N)C(=O)N[C@@H](CO)C(=O)N[C@@H](C)C(N)=O)C(C)C)C(C)C [GKLLVKKIVSLVRSA] |  | > 25 | 25 (≈ 40.3 µg/mL) | > 25 | > 25 | > 25 | 
7 | CC(C)C[C@H](NC(=O)[C@H](CCCCN)NC(=O)[C@H](C)NC(=O)[C@H](CCCCN)NC(=O)[C@H](C)NC(=O)[C@H](CC(C)C)NC(=O)[C@H](CCCCN)NC(=O)[C@H](C)NC(=O)[C@H](CC(C)C)NC(=O)[C@H](CC(C)C)NC(=O)[C@H](CCCCN)NC(=O)[C@H](C)NC(=O)[C@@H](N)Cc1ccccc1)C(N)=O [FAKLLAKLAKAKL] |  |  |  |  |  | 35.3 (≈ 50 µg/mL) | 10.6 (≈ 15 µg/mL)
